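Cells were grown in 96-well plates and exposed to each compound for 48 hours at five concentrations; endpoints were interpolated linearly between bracketing concentrations, or set to the highest concentration if not reached. Here, GI50 denotes the concentration required for 50% inhibition of growth. TGI marks complete inhibition of growth.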
Each compound was assayed on A549 NSCLC (assay: DTP human tumour cell line panel, 48 h).

SMILES | TGI | GI50
COCCCNc1nc(N)c(C#N)c(C#N)c1C#N | > 10 µM | –
CC1CCCCNC1=S (stereo unspecified) | > 10 µM | –
CCOC(=O)c1ccc(N[C@@H]2c3cc4c(cc3C(c3cc(OC)c(O)c(OC)c3)[C@H]3C(=O)OCC32)OCO4)cc1O (stereo partly specified) | 2.51 µM | –
CC1CC2=C(S(=O)(=O)c3ccccc3)CC(S(=O)(=O)c3ccccc3)(S(=O)(=O)c3ccccc3)CC21 (stereo unspecified) | > 100 µM | –
CCC(C)NC1=NCC(C)S1 (stereo unspecified) | > 100 µM | –
Clc1ccc(C[P+](c2ccccc2)(c2ccccc2)c2ccccc2)c(Cl)c1 | 32.5 µM | –
COc1ccccc1CNCCCN1C(=O)c2ccc3c4c(ccc(c24)C1=O)C(=O)N(CCCNCCNCCCN)C3=O | 13.1 µM | 3.01 µM
NNC(=O)c1c(SCc2ccccc2)nc2c3ccccc3ccn12 | 70.3 µM | –
COc1cc2oc(-c3ccc(O)cc3)c(OC)c(=O)c2c(O)c1OC | > 100 µM | 58.6 µM
C[C@@H]1Nc2cc(NC(=O)OCCF)nc(N)c2N=C1c1ccccc1 | 46.6 µM | –

These compounds were tested on CCRF-CEM leukemia (assay: DTP human tumour cell line panel, 48 h).

SMILES | TGI | GI50
COCCCNc1nc(N)c(C#N)c(C#N)c1C#N | 6.67 µM | –
CC1CCCCNC1=S (stereo unspecified) | > 10 µM | –
CCOC(=O)c1ccc(N[C@@H]2c3cc4c(cc3C(c3cc(OC)c(O)c(OC)c3)[C@H]3C(=O)OCC32)OCO4)cc1O (stereo partly specified) | > 100 µM | –
CC1CC2=C(S(=O)(=O)c3ccccc3)CC(S(=O)(=O)c3ccccc3)(S(=O)(=O)c3ccccc3)CC21 (stereo unspecified) | > 100 µM | –
CCC(C)NC1=NCC(C)S1 (stereo unspecified) | > 100 µM | –
Clc1ccc(C[P+](c2ccccc2)(c2ccccc2)c2ccccc2)c(Cl)c1 | 21.3 µM | –
COc1ccccc1CNCCCN1C(=O)c2ccc3c4c(ccc(c24)C1=O)C(=O)N(CCCNCCNCCCN)C3=O | 56.8 µM | 3.17 µM
NNC(=O)c1c(SCc2ccccc2)nc2c3ccccc3ccn12 | 22.1 µM | –
COc1cc2oc(-c3ccc(O)cc3)c(OC)c(=O)c2c(O)c1OC | > 100 µM | 15.2 µM

Each compound was assayed on DU-145 prostate (assay: DTP human tumour cell line panel, 48 h).

SMILES | TGI | GI50
COCCCNc1nc(N)c(C#N)c(C#N)c1C#N | > 10 µM | –
CC1CCCCNC1=S (stereo unspecified) | > 10 µM | –
CCC(C)NC1=NCC(C)S1 (stereo unspecified) | > 100 µM | –
COc1ccccc1CNCCCN1C(=O)c2ccc3c4c(ccc(c24)C1=O)C(=O)N(CCCNCCNCCCN)C3=O | 12.5 µM | 3.65 µM
NNC(=O)c1c(SCc2ccccc2)nc2c3ccccc3ccn12 | > 100 µM | –
COc1cc2oc(-c3ccc(O)cc3)c(OC)c(=O)c2c(O)c1OC | > 100 µM | 18.3 µM

The compounds below were run on HL-60(TB) leukemia (assay: DTP human tumour cell line panel, 48 h).

SMILES | TGI | GI50
COCCCNc1nc(N)c(C#N)c(C#N)c1C#N | > 10 µM | –
CC1CCCCNC1=S (stereo unspecified) | > 10 µM | –
CCOC(=O)c1ccc(N[C@@H]2c3cc4c(cc3C(c3cc(OC)c(O)c(OC)c3)[C@H]3C(=O)OCC32)OCO4)cc1O (stereo partly specified) | 5.66 µM | –
CC1CC2=C(S(=O)(=O)c3ccccc3)CC(S(=O)(=O)c3ccccc3)(S(=O)(=O)c3ccccc3)CC21 (stereo unspecified) | > 100 µM | –
CCC(C)NC1=NCC(C)S1 (stereo unspecified) | > 100 µM | –
Clc1ccc(C[P+](c2ccccc2)(c2ccccc2)c2ccccc2)c(Cl)c1 | 3.25 µM | –
COc1ccccc1CNCCCN1C(=O)c2ccc3c4c(ccc(c24)C1=O)C(=O)N(CCCNCCNCCCN)C3=O | 6.34 µM | 2.54 µM
NNC(=O)c1c(SCc2ccccc2)nc2c3ccccc3ccn12 | 29.4 µM | –
C[C@@H]1Nc2cc(NC(=O)OCCF)nc(N)c2N=C1c1ccccc1 | < 0.0001 µM | –

What follows are compounds tested on HOP-62 NSCLC (assay: DTP human tumour cell line panel, 48 h).

SMILES | TGI | GI50
COCCCNc1nc(N)c(C#N)c(C#N)c1C#N | > 10 µM | –
CC1CCCCNC1=S (stereo unspecified) | > 10 µM | –
CCOC(=O)c1ccc(N[C@@H]2c3cc4c(cc3C(c3cc(OC)c(O)c(OC)c3)[C@H]3C(=O)OCC32)OCO4)cc1O (stereo partly specified) | 1.56 µM | –
CC1CC2=C(S(=O)(=O)c3ccccc3)CC(S(=O)(=O)c3ccccc3)(S(=O)(=O)c3ccccc3)CC21 (stereo unspecified) | > 100 µM | –
CCC(C)NC1=NCC(C)S1 (stereo unspecified) | > 100 µM | –
Clc1ccc(C[P+](c2ccccc2)(c2ccccc2)c2ccccc2)c(Cl)c1 | 27.9 µM | –
COc1ccccc1CNCCCN1C(=O)c2ccc3c4c(ccc(c24)C1=O)C(=O)N(CCCNCCNCCCN)C3=O | 14.2 µM | 2.46 µM
NNC(=O)c1c(SCc2ccccc2)nc2c3ccccc3ccn12 | > 100 µM | –
COc1cc2oc(-c3ccc(O)cc3)c(OC)c(=O)c2c(O)c1OC | > 100 µM | 42.3 µM

Each compound was assayed on K-562 leukemia (assay: DTP human tumour cell line panel, 48 h).

SMILES | TGI | GI50
COCCCNc1nc(N)c(C#N)c(C#N)c1C#N | > 10 µM | –
CC1CCCCNC1=S (stereo unspecified) | > 10 µM | –
CC1CC2=C(S(=O)(=O)c3ccccc3)CC(S(=O)(=O)c3ccccc3)(S(=O)(=O)c3ccccc3)CC21 (stereo unspecified) | > 100 µM | –
CCC(C)NC1=NCC(C)S1 (stereo unspecified) | > 100 µM | –
COc1ccccc1CNCCCN1C(=O)c2ccc3c4c(ccc(c24)C1=O)C(=O)N(CCCNCCNCCCN)C3=O | 16.7 µM | 3.24 µM
NNC(=O)c1c(SCc2ccccc2)nc2c3ccccc3ccn12 | 57.9 µM | –
COc1cc2oc(-c3ccc(O)cc3)c(OC)c(=O)c2c(O)c1OC | > 100 µM | 42.8 µM
C[C@@H]1Nc2cc(NC(=O)OCCF)nc(N)c2N=C1c1ccccc1 | < 0.0001 µM | –

Each compound was assayed on NCI-H226 lung (assay: DTP human tumour cell line panel, 48 h).

SMILES | TGI | GI50
COCCCNc1nc(N)c(C#N)c(C#N)c1C#N | > 10 µM | –
CC1CCCCNC1=S (stereo unspecified) | > 10 µM | –
CCOC(=O)c1ccc(N[C@@H]2c3cc4c(cc3C(c3cc(OC)c(O)c(OC)c3)[C@H]3C(=O)OCC32)OCO4)cc1O (stereo partly specified) | 2.39 µM | –
CC1CC2=C(S(=O)(=O)c3ccccc3)CC(S(=O)(=O)c3ccccc3)(S(=O)(=O)c3ccccc3)CC21 (stereo unspecified) | > 100 µM | –
CCC(C)NC1=NCC(C)S1 (stereo unspecified) | > 100 µM | –
Clc1ccc(C[P+](c2ccccc2)(c2ccccc2)c2ccccc2)c(Cl)c1 | 7.77 µM | –
COc1ccccc1CNCCCN1C(=O)c2ccc3c4c(ccc(c24)C1=O)C(=O)N(CCCNCCNCCCN)C3=O | 21.3 µM | 2.99 µM
NNC(=O)c1c(SCc2ccccc2)nc2c3ccccc3ccn12 | > 100 µM | –
COc1cc2oc(-c3ccc(O)cc3)c(OC)c(=O)c2c(O)c1OC | > 100 µM | 45.7 µM
C[C@@H]1Nc2cc(NC(=O)OCCF)nc(N)c2N=C1c1ccccc1 | – | < 0.0001 µM

These compounds were tested on RXF 393 renal (assay: DTP human tumour cell line panel, 48 h).

SMILES | TGI | GI50
COCCCNc1nc(N)c(C#N)c(C#N)c1C#N | > 10 µM | –
CC1CCCCNC1=S (stereo unspecified) | > 10 µM | –
CCOC(=O)c1ccc(N[C@@H]2c3cc4c(cc3C(c3cc(OC)c(O)c(OC)c3)[C@H]3C(=O)OCC32)OCO4)cc1O (stereo partly specified) | 6.77 µM | –
CC1CC2=C(S(=O)(=O)c3ccccc3)CC(S(=O)(=O)c3ccccc3)(S(=O)(=O)c3ccccc3)CC21 (stereo unspecified) | > 100 µM | –
CCC(C)NC1=NCC(C)S1 (stereo unspecified) | > 100 µM | –
Clc1ccc(C[P+](c2ccccc2)(c2ccccc2)c2ccccc2)c(Cl)c1 | 8.67 µM | –
COc1ccccc1CNCCCN1C(=O)c2ccc3c4c(ccc(c24)C1=O)C(=O)N(CCCNCCNCCCN)C3=O | 7.12 µM | 1.65 µM
NNC(=O)c1c(SCc2ccccc2)nc2c3ccccc3ccn12 | 93.4 µM | –
COc1cc2oc(-c3ccc(O)cc3)c(OC)c(=O)c2c(O)c1OC | > 100 µM | 29 µM
C[C@@H]1Nc2cc(NC(=O)OCCF)nc(N)c2N=C1c1ccccc1 | > 100 µM | –

The compounds below were run on TK-10 renal (assay: DTP human tumour cell line panel, 48 h).

SMILES | TGI | GI50
COCCCNc1nc(N)c(C#N)c(C#N)c1C#N | > 10 µM | –
CC1CCCCNC1=S (stereo unspecified) | > 10 µM | –
CC1CC2=C(S(=O)(=O)c3ccccc3)CC(S(=O)(=O)c3ccccc3)(S(=O)(=O)c3ccccc3)CC21 (stereo unspecified) | > 100 µM | –
Clc1ccc(C[P+](c2ccccc2)(c2ccccc2)c2ccccc2)c(Cl)c1 | 25.6 µM | –
COc1ccccc1CNCCCN1C(=O)c2ccc3c4c(ccc(c24)C1=O)C(=O)N(CCCNCCNCCCN)C3=O | 44.7 µM | 6.65 µM
NNC(=O)c1c(SCc2ccccc2)nc2c3ccccc3ccn12 | > 100 µM | –
COc1cc2oc(-c3ccc(O)cc3)c(OC)c(=O)c2c(O)c1OC | > 100 µM | 62.4 µM

These compounds were tested on UO-31 renal (assay: DTP human tumour cell line panel, 48 h).

SMILES | TGI | GI50
COCCCNc1nc(N)c(C#N)c(C#N)c1C#N | > 10 µM | –
CC1CCCCNC1=S (stereo unspecified) | > 10 µM | –
CCOC(=O)c1ccc(N[C@@H]2c3cc4c(cc3C(c3cc(OC)c(O)c(OC)c3)[C@H]3C(=O)OCC32)OCO4)cc1O (stereo partly specified) | 78.1 µM | –
CC1CC2=C(S(=O)(=O)c3ccccc3)CC(S(=O)(=O)c3ccccc3)(S(=O)(=O)c3ccccc3)CC21 (stereo unspecified) | > 100 µM | –
CCC(C)NC1=NCC(C)S1 (stereo unspecified) | > 100 µM | –
COc1ccccc1CNCCCN1C(=O)c2ccc3c4c(ccc(c24)C1=O)C(=O)N(CCCNCCNCCCN)C3=O | 84.5 µM | 10.8 µM
NNC(=O)c1c(SCc2ccccc2)nc2c3ccccc3ccn12 | 66.5 µM | –
COc1cc2oc(-c3ccc(O)cc3)c(OC)c(=O)c2c(O)c1OC | > 100 µM | 42.6 µM
C[C@@H]1Nc2cc(NC(=O)OCCF)nc(N)c2N=C1c1ccccc1 | 89.1 µM | –

— PubChem BioAssay (NCI)
